US12252524B2, “GIP/GLP1 co-agonist compounds” (Eli Lilly and Company, priority 2018, dated 2025)

What was measured:
human Gcg receptor = target: T1, human Gcg receptor (Homo sapiens, UniProt P47871); assay: [125I]-Glucagon binding (SPA), human Gcg receptor
T1 construct: expressed in transfected cells; crude membranes
Summary of the method: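 Scintillation counts are taken after membranes and WGA beads incubate and settle for 12 hours at room temperature. Buffer is 25 mM HEPES, pH 7.4, with CaCl2, MgCl2, bacitracin and Tween-20. Ki values, from four-parameter IC50 fits, are geometric means over independent days.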

human GIP receptor = target: T2, human GIP receptor (Homo sapiens, UniProt P48546); assay: [125I]-GIP binding (SPA), human GIP receptor
T2 construct: expressed in transfected cells; crude membranes
T2 sequence (P48546 22-466): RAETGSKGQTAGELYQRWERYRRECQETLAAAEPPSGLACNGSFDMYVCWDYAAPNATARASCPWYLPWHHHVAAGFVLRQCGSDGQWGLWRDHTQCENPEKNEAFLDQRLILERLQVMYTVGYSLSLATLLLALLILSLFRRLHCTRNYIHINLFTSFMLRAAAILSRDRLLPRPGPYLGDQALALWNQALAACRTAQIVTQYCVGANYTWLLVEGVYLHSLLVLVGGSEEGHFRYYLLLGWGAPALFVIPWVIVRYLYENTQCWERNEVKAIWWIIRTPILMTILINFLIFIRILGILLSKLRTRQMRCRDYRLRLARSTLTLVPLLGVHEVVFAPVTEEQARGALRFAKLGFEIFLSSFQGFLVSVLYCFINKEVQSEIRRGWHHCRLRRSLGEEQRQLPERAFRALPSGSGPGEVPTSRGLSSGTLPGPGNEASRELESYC

[1] = target: human GLP-1 receptor (GLP-1R) (Homo sapiens, UniProt P43220); assay: cAMP pharmacological functional assay in presence of casein, hGLP-1R; type: cell-based
[2] = target: T3, gastric inhibitory peptide receptor (GIPR) (Homo sapiens, UniProt P48546); assay: cAMP pharmacological functional assay in presence of casein, hGIPR; type: cell-based
T3 sequence (P48546 22-466): T2 sequence (P48546 22-466)

human GLP-1R [3] = target: T4, human GLP-1R (Homo sapiens, UniProt P43220); assay: [125I]-GLP-1 binding (SPA), human GLP-1 receptor; parameters: expressed in transfected cells; crude membranes
Summary of the method: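 Frozen cell pellets are lysed on ice in hypotonic Tris buffer, pH 7.5, homogenized, and centrifuged to a membrane pellet resuspended at about 1 to 3 mg/mL. Binding is then measured in HEPES-based buffer at pH 7.4, and curves are fitted to give IC50 and Ki.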

human GLP-1R [4] = target: T4, human GLP-1R; assay: GLP-1R CHO cell β-arrestin recruitment assay; type: cell-based; parameters: host or cells: CHO-K1 PathHunter cells, assay-ready frozen; conditions: for hGLP1R B-Arrestin2 % Top: normalized to GLP-1 maximum control
Summary of the method: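 PathHunter CHO-K1 cells with ProLink-tagged human GLP-1R and enzyme-acceptor-tagged β-arrestin-2 treated with serially diluted peptides in assay buffer containing 0.1% hydrolyzed casein, 90 min at 37 °C.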

human GLP-1R [5] = target: T4, human GLP-1R; assay: GLP-1R HEK293 cell membrane [35S]GTPγS binding assay; type: biochemical; parameters: expressed in transfected cells; host or cells: HEK293 cells expressing human GLP-1R; membranes
Summary of the method: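 Membranes from HEK293 cells expressing the receptor incubated with peptide and […] [35S]GTPγS in HEPES pH 7.4 buffer with NaCl, MgCl2, saponin and BSA, 30 min at room temperature. Gαs-bound label captured by anti-Gαs antibody/SPA beads and counted; EC50 from four-parameter logistic fit.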

T4 sequence (P43220 24-463): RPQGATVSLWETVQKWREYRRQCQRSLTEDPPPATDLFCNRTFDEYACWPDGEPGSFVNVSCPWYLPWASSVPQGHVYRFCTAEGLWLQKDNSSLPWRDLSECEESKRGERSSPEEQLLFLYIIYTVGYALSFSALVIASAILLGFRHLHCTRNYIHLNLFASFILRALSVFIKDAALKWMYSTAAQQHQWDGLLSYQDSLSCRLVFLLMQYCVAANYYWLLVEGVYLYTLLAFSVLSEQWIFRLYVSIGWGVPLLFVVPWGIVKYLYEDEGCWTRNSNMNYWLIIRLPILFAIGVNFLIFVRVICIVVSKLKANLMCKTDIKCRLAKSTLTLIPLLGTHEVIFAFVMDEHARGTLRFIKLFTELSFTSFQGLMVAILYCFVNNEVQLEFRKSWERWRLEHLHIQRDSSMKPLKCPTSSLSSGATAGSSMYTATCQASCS
human GLP-1 receptor (GLP-1R), sequence (P43220 24-463): as above
T1 sequence (P47871 26-477): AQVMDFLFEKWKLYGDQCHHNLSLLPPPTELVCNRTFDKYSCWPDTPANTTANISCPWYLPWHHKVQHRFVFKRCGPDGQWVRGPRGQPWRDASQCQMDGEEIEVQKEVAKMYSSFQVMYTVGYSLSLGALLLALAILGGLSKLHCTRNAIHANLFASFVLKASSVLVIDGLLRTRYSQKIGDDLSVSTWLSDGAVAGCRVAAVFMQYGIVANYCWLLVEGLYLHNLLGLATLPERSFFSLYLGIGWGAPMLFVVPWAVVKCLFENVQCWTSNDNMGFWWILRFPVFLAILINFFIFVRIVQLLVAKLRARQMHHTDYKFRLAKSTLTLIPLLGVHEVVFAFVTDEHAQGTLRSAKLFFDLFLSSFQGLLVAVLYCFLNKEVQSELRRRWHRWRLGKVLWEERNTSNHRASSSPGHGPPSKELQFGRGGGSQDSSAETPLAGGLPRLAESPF

CC[C@H](C)[C@H](NC(=O)[C@H](CC(C)C)NC(=O)[C@H](Cc1ccc(O)cc1)NC(=O)[C@H](CCC(=O)O)NC(=O)[C@@H](NC(=O)[C@H](Cc1ccccc1)NC(=O)[C@H](C)NC(=O)C(C)(C)NC(=O)[C@H](CCC(N)=O)NC(=O)[C@H](C)NC(=O)[C@H](CCCCNC(=O)COCCOCCNC(=O)COCCOCCNC(=O)CC[C@H](NC(=O)CCCCCCCCCCCCCCCCCCC(=O)O)C(=O)O)NC(=O)[C@H](CCCCN)NC(=O)[C@H](CC(=O)O)NC(=O)[C@H](CC(C)C)NC(=O)[C@](C)(CC(C)C)NC(=O)[C@@H](NC(=O)[C@H](CO)NC(=O)[C@H](Cc1ccc(O)cc1)NC(=O)[C@H](CC(=O)O)NC(=O)[C@H](CO)NC(=O)[C@@H](NC(=O)[C@](C)(Cc1ccccc1)NC(=O)[C@@H](NC(=O)CNC(=O)[C@H](CCC(=O)O)NC(=O)C(C)(C)NC(=O)[C@H](N)Cc1ccc(O)cc1)[C@@H](C)O)[C@@H](C)O)[C@@H](C)CC)[C@@H](C)CC)C(=O)N[C@@H](CCC(=O)O)C(=O)NCC(=O)NCC(=O)N1CCC[C@H]1C(=O)N[C@@H](CO)C(=O)N[C@@H](CO)C(=O)NCC(=O)N[C@@H](C)C(=O)N1CCC[C@H]1C(=O)N1CCC[C@H]1C(=O)N1CCC[C@H]1C(=O)N[C@@H](CO)C(N)=O [Example 335]
Ki (human Gcg receptor): 27.1 nM
Ki (human GIP receptor): 0.0444 nM
EC50 [1]: 0.122 nM
EC50 [2]: 0.0477 nM
Ki (human GLP-1R [3]): 2.54 nM
EC50 (human GLP-1R [4]): 5.31 nM
hGLP1R B-Arrestin2 % Top (human GLP-1R [4]): 73%
EC50 (human GLP-1R [5]): 0.285 nM

CC[C@H](C)[C@H](NC(=O)[C@H](CC(C)C)NC(=O)[C@H](Cc1ccc(O)cc1)NC(=O)[C@H](CCC(=O)O)NC(=O)[C@@H](NC(=O)[C@H](Cc1ccccc1)NC(=O)[C@H](C)NC(=O)C(C)(C)NC(=O)[C@H](CCC(N)=O)NC(=O)[C@H](C)NC(=O)[C@H](CCCCNC(=O)COCCOCCNC(=O)COCCOCCNC(=O)CC[C@H](NC(=O)CCCCCCCCCCCCCCCCCCC(=O)O)C(=O)O)NC(=O)[C@H](CCCCN)NC(=O)[C@H](CC(=O)O)NC(=O)[C@H](CC(C)C)NC(=O)[C@](C)(CC(C)C)NC(=O)[C@@H](NC(=O)[C@H](CO)NC(=O)[C@H](Cc1ccc(O)cc1)NC(=O)[C@H](CC(=O)O)NC(=O)[C@H](CO)NC(=O)[C@@H](NC(=O)[C@](C)(Cc1ccccc1F)NC(=O)[C@@H](NC(=O)CNC(=O)[C@H](CCC(=O)O)NC(=O)C(C)(C)NC(=O)[C@H](N)Cc1ccc(O)cc1)[C@@H](C)O)[C@@H](C)O)[C@@H](C)CC)[C@@H](C)CC)C(=O)N[C@@H](CCC(=O)O)C(=O)NCC(=O)NCC(=O)N1CCC[C@H]1C(=O)N[C@@H](CO)C(=O)N[C@@H](CO)C(=O)NCC(=O)N[C@@H](C)C(=O)N1CCC[C@H]1C(=O)N1CCC[C@H]1C(=O)N1CCC[C@H]1C(=O)N[C@@H](CO)C(N)=O [Example 336]
Ki (human Gcg receptor): 17.1 nM
Ki (human GIP receptor): 0.0277 nM
EC50 [1]: 0.0874 nM
EC50 [2]: 0.0312 nM
Ki (human GLP-1R [3]): 2.44 nM
EC50 (human GLP-1R [4]): 7.78 nM
hGLP1R B-Arrestin2 % Top (human GLP-1R [4]): 82.5%
EC50 (human GLP-1R [5]): 0.377 nM
